In patent US4894460A (Pierrel S.p.A., priority 1982, dated 1990) one finds ED (25%), LD50 and IC50 data, which are given here for four compounds.

Structures are written as SMILES. Like-named read-outs stand apart in the source and are kept apart here.

Broadly, the LD50 is the dose at which mortality reaches 50%. A high value points to lower toxicity.

Data set [1] concerns Spontaneous Hypertensive Rats (SHR). Briefly: Hypotensive activity in spontaneous hypertensive rats (SHR). In kind it is in vivo, Male SHR (Okamoto) rats. Particulars: Rattus norvegicus, po, p.o. in 0.4% carboxymethyl cellulose, systolic arterial pressure, read-out: Hypotensive activity in SHR ED^SABP -25%. As for the experimental part: Hypotensive Activity in Spontaneous Hypertensive Rats (SHR)
Male SHR (Okamoto), of 70-100 days of age were used. The systolic arterial pressure (SABP) was determined by applying to the tail of the animal a pressure transducer with a sleeve connected to a BP-Recorder (W-W Electronic of Basel). The animals were previously warmed to 39° C. for a period of 15-20 minutes in a ventilated chamber.
The rats were previously trained to the registration for 1-2 days prior to the start of the experiment which consisted of a basic registration, the pharmacological treatment and then of subsequent registrations one hour and three hours after the treatment.
All the products were administered orally (p.o.), suspended in 0.4% carboxymethyl cellulose (Methocel); the volume of vehicle was 2 ml per kg.
The compounds of formula (I) were tested at three dose levels and the value of ED-25% was determined.

A further data set in a line: in vivo. Particulars: mouse, iv, mice, i.v. in dimethylsulfoxide, after seven days, Litchfield and Wilcoxon. The method, then: Intravenous Toxicity in Mice
Male CD1 mice from Charles River (Italy), weighing 25 g were used. Compounds were administered intravenously (i.v.), dissolved in dimethylsulfoxide, and the volume of administration was 0.01 ml per 10 g of body weight. The LD50 after seven days, was calculated according to the method of Litchfield and Wilcoxon (Experimental Therapeutics 96, 99 (1949)).

A further data set deals with taenia coli. Briefly: Antagonistic activity to calcium in the taenia coli of guinea pigs (CaCl2-induced contractions, in vitro). It counts as cell-based, Hartley albino guinea pigs. Particulars: Cavia porcellus, 10 min, read-out: Calcium antagonistic activity in vitro ED50. The method, then: Antagonistic Activity to Calcium in the Taenia Coli of Guinea Pigs
Hartley albino guinea pigs of average weight 450 g were used. The calcium antagonistic activity was determined stimulating the taenia coli, previously depolarized, with a single submaximal concentration of CaCl2 (10^-3 M), at intervals of 20 minutes (according to the method Naunyn Schmied. Arch. Pharmacol. 318, 235 (1982)). The products were left in contact with the preparation for 10 minutes. The ED50 were calculated from the percentage of maximum inhibition.

[2] abbreviates: guinea pig taenia coli, depolarized, CaCl2 10^-3 M, 10 min contact, from maximum inhibition.

Take `COC(=O)C1=C(C)NC(C)=C(C(=O)OCCN2CCN(c3ccc([N+](=O)[O-])cc3)CC2)C1c1cccc([N+](=O)[O-])c1` (stereo not drawn) [0295C, 2-[4-(4-Nitrophenyl)]piperazinoethyl-2,6-dimethyl-4-(3-nitrophenyl)-5-methoxycarbonyl-1,4-dihydropyridine-3-carboxylate]: the ED (25%) in data set [1] was above 20 mg/kg. Also, the 50% lethal dose (LD50) at 168 h in the data set “in vivo” is 38 mg/kg. Moreover, the IC50 in the data set on taenia coli was found to be 11 nM.
Regarding `COC(=O)C1=C(C)NC(C)=C(C(=O)OCCN2CCN(c3ccc([N+](=O)[O-])c(C(F)(F)F)c3)CC2)C1c1cccc([N+](=O)[O-])c1` (stereo not drawn) [0296C, 2-[4-(3-Trifluoromethyl-4-nitrophenyl)]piperazinoethyl-2,6-dimethyl-4-(3-nitrophenyl)-5-methoxycarbonyl-1,4-dihydropyridine-3-carboxylate], the ED (25%) in data set [1] amounted to 87 mg/kg. The LD50 at 168 h in “in vivo” worked out at 55 mg/kg. Also, the IC50 in the data set on taenia coli stood at 19 nM.
As to `COC(=O)C1=C(C)NC(C)=C(C(=O)OCCN2CCN(c3ccc(C(F)(F)F)cc3)CC2)C1c1cccc([N+](=O)[O-])c1` (stereo not drawn) [0297C, 2-[4-(4-Trifluoromethylphenyl)]piperazinoethyl-2,6-dimethyl-4-(3-nitrophenyl)-5-methoxycarbonyl-1,4-dihydropyridine-3-carboxylate], in data set [1], the ED (25%) was determined as 4.4 mg/kg. Besides, in “in vivo”, the LD50 at 168 h worked out at 73 mg/kg. Moreover, the IC50 in the data set with taenia coli (setting [2]) amounted to 15 nM.
Regarding `COC(=O)C1=C(C)NC(C)=C(C(=O)OCCN2CCN(c3cccc(OC)c3)CC2)C1c1cccc([N+](=O)[O-])c1` (stereo not drawn) [0298C, 2-[4-(3-Methoxyphenyl)]piperazinoethyl-2,6-dimethyl-4-(3-nitrophenyl)-5-methoxycarbonyl-1,4-dihydropyridine-3-carboxylate], the ED (25%) in data set [1] came to 32 mg/kg. This compound returned an LD50 at 168 h in the data set “in vivo” of 38 mg/kg. In addition, in the data set on taenia coli (setting [2]), the IC50 worked out at 7.5 nM.
